Where a name gives a salt, the structure may show the parent alone.
Key:
[1] = cited from earlier work
angina pectoris = details: cited from earlier work
[2] = oral, 120 mg diltiazem hydrochloride, after administration; FIG. 6
Description: (§1) An interval of approximately 5-7 days elapsed between the administration of each agent tested in this example.
(§2) (TM) containing EDTA (ethylenediamine tetraacetic acid) as an anticoagulant just before administration of the test agent; this sample represented the zero time sample. The blood sample was centrifuged for 15 minutes under conditions known to those skilled in the art. The plasma portion of each sample was harvested, frozen and stored at minus 70 degrees Celsius until analysis. At timed intervals after administration, additional blood samples were withdrawn and similarly treated.

clinical = details: po, 120 mg
Description: as §1, §2

SMILES | decrease in bioavailability by first-pass metabolism (loss) ([1]; oral) | plasma half-life ([1]; references 17, 19) | incidence of side effects compared with other calcium channel blockers (angina pectoris; human, in vivo) | safety and efficacy in stable and unstable angina pectoris (angina pectoris; reference 1) | time by which most of the quick release preparation is gone (plasma) [2] | Tmax (clinical; human, plasma) | Tmax (clinical; in vivo)
COc1ccc([C@@H]2Sc3ccccc3N(CCN(C)C)C(=O)[C@@H]2OC(C)=O)cc1 [diltiazem] | ≤ 60% | 2 to 6 h | lower incidence of side effects | safe and effective treatment for both stable and unstable angina pectoris |  |  | 
COc1ccc([C@@H]2Sc3ccccc3N(CCN(C)C)C(=O)[C@@H]2OC(C)=O)cc1 [diltiazem hydrochloride] |  |  |  |  | 5 to 6 h | 1 to 2 h | 1 to 2 h

Reference: US6162463A (priority 1998, dated 2000)
